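Step 1: Grow cells in 96-well plates. Step 2: Expose to compound for 48 hours at 5 concentrations. Step 3: Interpolate endpoints linearly; if unreached, use highest concentration. Here, GI50 denotes the concentration required for 50% inhibition of growth.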 Calls of active or inactive are those of the source. Cut-off read from the data, not from the text of the source: active = GI50 up to about 1.1 µM and inactive = higher.
Tests used:
Assay in all cases: NCI tumour cell line growth inhibition, 48 h
KM12 = test system: KM12
UACC-62 = test system: UACC-62
SNB-75 = test system: SNB-75
HOP-62 = test system: HOP-62
OVCAR-4 = test system: OVCAR-4
K562 = test system: K562
SF-295 = test system: SF-295
HCC 2998 = test system: HCC 2998
U-251 = test system: U-251
RPMI-8226 = test system: RPMI-8226
SNB-19 = test system: SNB-19
LOX IMVI = test system: LOX IMVI
NCI-H226 = test system: NCI-H226
UO-31 = test system: UO-31
A549 = test system: A549
COLO 205 = test system: COLO 205
RXF 393 = test system: RXF 393
SR = test system: SR

Structure (SMILES)	GI50 (KM12)	GI50 (UACC-62)	GI50 (SNB-75)	GI50 (HOP-62)	GI50 (OVCAR-4)	GI50 (K562)	GI50 (SF-295)	GI50 (HCC 2998)	GI50 (U-251)	GI50 (RPMI-8226)	GI50 (SNB-19)	GI50 (LOX IMVI)	GI50 (NCI-H226)	GI50 (UO-31)	GI50 (A549)	GI50 (COLO 205)	GI50 (RXF 393)	GI50 (SR)
O=c1[nH]c(=O)n([C@@H]2C[C@H](CO)[C@H](O)C2)cc1/C=C/Br	> 100 µM (inactive)	> 100 µM (inactive)	> 100 µM (inactive)	> 100 µM (inactive)	> 100 µM (inactive)	> 100 µM (inactive)	> 100 µM (inactive)	> 100 µM (inactive)	> 100 µM (inactive)	> 100 µM (inactive)	> 100 µM (inactive)	> 100 µM (inactive)	> 100 µM (inactive)	> 100 µM (inactive)	> 100 µM (inactive)			
CCCCCCCCCCCCC(Br)C(C)=O (stereo not drawn)	> 100 µM (inactive)	> 100 µM (inactive)		> 100 µM (inactive)	> 100 µM (inactive)		> 100 µM (inactive)	> 100 µM (inactive)	> 100 µM (inactive)		> 100 µM (inactive)	> 100 µM (inactive)	> 100 µM (inactive)	> 100 µM (inactive)	> 100 µM (inactive)	> 100 µM (inactive)	> 100 µM (inactive)	
CCC1(CC)C(=O)NC(=S)N=C1N		> 100 µM (inactive)	57 µM (inactive)	> 100 µM (inactive)	> 100 µM (inactive)	> 100 µM (inactive)	> 100 µM (inactive)		> 100 µM (inactive)	> 100 µM (inactive)	> 100 µM (inactive)	> 100 µM (inactive)	> 100 µM (inactive)	> 100 µM (inactive)	> 100 µM (inactive)	> 100 µM (inactive)	> 100 µM (inactive)	
O=C(N/C(=C\c1ccc([N+](=O)[O-])cc1)c1nc2cc(Cl)ccc2[nH]1)c1ccccc1	21.1 µM (inactive)	18.7 µM (inactive)			15.7 µM (inactive)	12.8 µM (inactive)	23.8 µM (inactive)	18 µM (inactive)	15.5 µM (inactive)		24.9 µM (inactive)			13.9 µM (inactive)	20.8 µM (inactive)		21 µM (inactive)	18 µM (inactive)
COc1ccc2[nH]c3c4c(c5cc(C(C)(C)C)ccc5c3c2c1)C(=O)N(c1ccccc1)C4=O	> 100 µM (inactive)	> 100 µM (inactive)	57 µM (inactive)	> 100 µM (inactive)	> 100 µM (inactive)	> 100 µM (inactive)	> 100 µM (inactive)	21.3 µM (inactive)	27.7 µM (inactive)	> 100 µM (inactive)	> 100 µM (inactive)	> 100 µM (inactive)	> 100 µM (inactive)	> 100 µM (inactive)	> 100 µM (inactive)	> 100 µM (inactive)	> 100 µM (inactive)	
COC1CCC(OS(C)(=O)=O)C(CO)O1 (stereo not drawn)	> 100 µM (inactive)	> 100 µM (inactive)	> 100 µM (inactive)	> 100 µM (inactive)		> 100 µM (inactive)	> 100 µM (inactive)	> 100 µM (inactive)	> 100 µM (inactive)			> 100 µM (inactive)		> 100 µM (inactive)	> 100 µM (inactive)		> 100 µM (inactive)	> 100 µM (inactive)
CC(C)[C@H](COC(C)(C)C)/N=C/N1CSc2ccccc21	27.6 µM (inactive)	48.8 µM (inactive)	30.3 µM (inactive)	41.2 µM (inactive)	27.9 µM (inactive)	33.7 µM (inactive)	24.4 µM (inactive)	47.3 µM (inactive)	32.5 µM (inactive)	20.4 µM (inactive)	37.8 µM (inactive)	33.7 µM (inactive)	48.3 µM (inactive)	96.2 µM (inactive)	42 µM (inactive)	18.9 µM (inactive)	28.7 µM (inactive)	
O=C1Nc2ccccc2N=CC1NC(=O)C(c1ccccc1)c1ccccc1 (stereo not drawn)	> 100 µM (inactive)	> 100 µM (inactive)	> 100 µM (inactive)	> 100 µM (inactive)	> 100 µM (inactive)	> 100 µM (inactive)	> 100 µM (inactive)	> 100 µM (inactive)	> 100 µM (inactive)	> 100 µM (inactive)	> 100 µM (inactive)	> 100 µM (inactive)	> 100 µM (inactive)	> 100 µM (inactive)	> 100 µM (inactive)	> 100 µM (inactive)	> 100 µM (inactive)	
ClCc1ccc(C2OCCO2)cc1	12.8 µM (inactive)	> 36.6 µM (inactive)	22.4 µM (inactive)	24.9 µM (inactive)		> 31.6 µM (inactive)	17.9 µM (inactive)	17.8 µM (inactive)	12.2 µM (inactive)	21.4 µM (inactive)	> 43 µM (inactive)	7.23 µM (inactive)	16.9 µM (inactive)	> 40.7 µM (inactive)	> 51.4 µM (inactive)	19.1 µM (inactive)	> 45.7 µM (inactive)	11.1 µM (inactive)
COc1ccc(C(=O)Nc2ccc(S(=O)(=O)NCC(=O)O)cc2)cc1	> 100 µM (inactive)	> 100 µM (inactive)	> 100 µM (inactive)		> 100 µM (inactive)	> 100 µM (inactive)	> 100 µM (inactive)	> 100 µM (inactive)	> 100 µM (inactive)	> 100 µM (inactive)	> 100 µM (inactive)	> 100 µM (inactive)		> 100 µM (inactive)	> 100 µM (inactive)	> 100 µM (inactive)	> 100 µM (inactive)	
O=C(/N=C(\Nc1ccccc1)SCCS/C(=N/C(=O)c1cccs1)Nc1ccccc1)c1cccs1	41 µM (inactive)	47 µM (inactive)	35.6 µM (inactive)	80.4 µM (inactive)	30.3 µM (inactive)	35.2 µM (inactive)	52.7 µM (inactive)	35.1 µM (inactive)	96.6 µM (inactive)	36.8 µM (inactive)	> 100 µM (inactive)	36.3 µM (inactive)	55.8 µM (inactive)	31.7 µM (inactive)	41.8 µM (inactive)	77.1 µM (inactive)	22.6 µM (inactive)	
O=c1cc(-c2ccccc2)nc(/C=C(\O)c2ccncc2)n1-c1ccccc1	> 100 µM (inactive)	> 100 µM (inactive)	70.1 µM (inactive)	> 100 µM (inactive)	> 100 µM (inactive)	> 100 µM (inactive)	> 100 µM (inactive)	> 100 µM (inactive)	> 100 µM (inactive)		> 100 µM (inactive)	> 100 µM (inactive)	> 100 µM (inactive)	> 100 µM (inactive)	> 100 µM (inactive)	> 100 µM (inactive)	> 100 µM (inactive)	
CCNC(=O)COc1ccc(Cl)cc1Cl	> 100 µM (inactive)		> 100 µM (inactive)	> 100 µM (inactive)		> 100 µM (inactive)	> 100 µM (inactive)		> 100 µM (inactive)	> 100 µM (inactive)	> 100 µM (inactive)		> 100 µM (inactive)	> 100 µM (inactive)	> 100 µM (inactive)	> 100 µM (inactive)		> 100 µM (inactive)
OCC(O)C(OC1OC(CO)C(O)C(O)C1O)c1nn(-c2ccc(F)cc2)c2nc3cc(Cl)c(Cl)cc3cc12 (stereo not drawn)	> 100 µM (inactive)	> 100 µM (inactive)	> 100 µM (inactive)	> 100 µM (inactive)	> 100 µM (inactive)	> 100 µM (inactive)	> 100 µM (inactive)	> 100 µM (inactive)	> 100 µM (inactive)	> 100 µM (inactive)	> 100 µM (inactive)	> 100 µM (inactive)		> 100 µM (inactive)			> 100 µM (inactive)	> 100 µM (inactive)
NC1=NN(c2ccccc2)C(=O)C1C(=O)CCC(=O)Nc1cccc(Cl)c1 (stereo not drawn)	> 100 µM (inactive)	> 100 µM (inactive)	> 100 µM (inactive)	> 100 µM (inactive)	> 100 µM (inactive)	> 100 µM (inactive)	> 100 µM (inactive)	> 100 µM (inactive)	> 100 µM (inactive)		> 100 µM (inactive)	> 100 µM (inactive)	> 100 µM (inactive)	> 100 µM (inactive)	> 100 µM (inactive)	> 100 µM (inactive)	> 100 µM (inactive)	
Cc1ccc(NC(=O)CC/C(CC(=O)C(C)(C)C)=N\Nc2ccc([N+](=O)[O-])cc2[N+](=O)[O-])cc1C	67.5 µM (inactive)	32.2 µM (inactive)		0.0522 µM (active)		28.3 µM (inactive)	32.6 µM (inactive)		58.1 µM (inactive)		> 100 µM (inactive)	31.6 µM (inactive)	> 100 µM (inactive)	53.2 µM (inactive)	37.7 µM (inactive)	> 100 µM (inactive)	67.5 µM (inactive)	39.7 µM (inactive)
Cc1ccc(NC(=O)NC23CC4CC(CC(F)(C4)C2)C3)cc1	82.6 µM (inactive)	69.3 µM (inactive)	25.2 µM (inactive)	> 100 µM (inactive)		44.6 µM (inactive)		> 100 µM (inactive)	> 100 µM (inactive)	28.3 µM (inactive)	> 100 µM (inactive)	> 100 µM (inactive)		40.1 µM (inactive)	> 100 µM (inactive)	> 100 µM (inactive)	> 100 µM (inactive)	
COc1ccc(/C=N/N=C(\N)NO)c(Cl)c1O	12.5 µM (inactive)	12.9 µM (inactive)		6.21 µM (inactive)	15.8 µM (inactive)	3.63 µM (inactive)	4.9 µM (inactive)	14.6 µM (inactive)	26.8 µM (inactive)	36 µM (inactive)	41 µM (inactive)	3.1 µM (inactive)	8.32 µM (inactive)	11.2 µM (inactive)	5.43 µM (inactive)	33 µM (inactive)	16.5 µM (inactive)	

From ChEMBL document CHEMBL1201862, “PubChem BioAssay data set” (2004)
